From ChEMBL document CHEMBL5370648, “Rational Design of Bioorthogonally Activatable PROTAC for Tumor-Targeted Protein Degradation” (J Med Chem, 2023)
Activity calls are given as the source filed them. No cut-off for these calls is given here.

Experiments:
[1] = target: T1, von Hippel-Lindau disease tumor suppressor/Bromodomain-containing protein 3 (Homo sapiens) (UniProt Q15059+P40337); assay: PROTAC activity at BRD3/VHL E3 ligase in 12 hrs BODIPY-TZ treated human MDA-MB-231 cells assessed as reduction in […] expression at upto 2.0 uM incubated for 48 hrs by Western blot analysis; assay type: cell-based
T1 sequence (P40337 whole entry partner): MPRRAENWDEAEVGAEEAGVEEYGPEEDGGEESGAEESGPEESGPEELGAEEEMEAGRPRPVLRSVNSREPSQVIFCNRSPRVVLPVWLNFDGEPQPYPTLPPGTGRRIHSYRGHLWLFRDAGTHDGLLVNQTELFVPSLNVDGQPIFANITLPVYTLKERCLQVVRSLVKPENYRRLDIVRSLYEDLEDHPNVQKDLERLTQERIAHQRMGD
T1 sequence (Q15059 2-726 limits assumed): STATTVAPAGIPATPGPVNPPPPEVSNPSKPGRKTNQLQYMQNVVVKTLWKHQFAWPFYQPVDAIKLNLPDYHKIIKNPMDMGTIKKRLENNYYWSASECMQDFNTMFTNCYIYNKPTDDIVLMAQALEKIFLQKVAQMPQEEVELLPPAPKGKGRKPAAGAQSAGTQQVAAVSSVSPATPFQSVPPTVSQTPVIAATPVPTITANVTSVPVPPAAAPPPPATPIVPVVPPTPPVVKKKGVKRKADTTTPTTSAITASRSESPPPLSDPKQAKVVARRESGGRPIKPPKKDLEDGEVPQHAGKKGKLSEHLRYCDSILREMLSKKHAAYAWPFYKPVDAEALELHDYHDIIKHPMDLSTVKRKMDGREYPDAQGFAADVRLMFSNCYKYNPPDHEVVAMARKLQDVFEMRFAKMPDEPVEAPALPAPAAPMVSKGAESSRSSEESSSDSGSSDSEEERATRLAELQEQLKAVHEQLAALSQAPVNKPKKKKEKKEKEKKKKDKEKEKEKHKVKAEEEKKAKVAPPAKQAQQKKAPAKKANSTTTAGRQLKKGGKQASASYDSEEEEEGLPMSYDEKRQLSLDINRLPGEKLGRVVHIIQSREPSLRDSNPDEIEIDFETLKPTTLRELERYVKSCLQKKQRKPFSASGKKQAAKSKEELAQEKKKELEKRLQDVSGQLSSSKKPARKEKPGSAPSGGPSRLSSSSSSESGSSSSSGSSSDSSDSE

[2] = target: T1, von Hippel-Lindau disease tumor suppressor/Bromodomain-containing protein 3 (Homo sapiens); assay: PROTAC activity at BRD3/VHL E3 ligase in 12 hrs BODIPY-TZ treated human MCF7 cells assessed as reduction in BRD3 expression at upto 2.0 uM incubated for 48 hrs by Western blot analysis; assay type: cell-based
[3] = tested on: MCF7; assay: Antitumor activity against IR808-TZ treated human MCF7 cells xenografted in BALB/c nude mouse model assessed as inhibition of tumor cell proliferation by measuring reduction in Ki67 staining at 20 mg/kg administered for 16 days by immunohistochemical analysis; assay type: functional, organism-based; settings: time 16.0 day
[4] = target: T2, von Hippel-Lindau disease tumor suppressor/Bromodomain-containing protein 4 (Homo sapiens, UniProt O60885+P40337); assay: PROTAC activity at BRD4/VHL E3 ligase in 12 hrs BODIPY-TZ treated human T47D cells assessed as induction of degradation of BRD4 at upto 1000 nM incubated for 48 hrs in presence of MG132 by immunofluorescence staining assay; assay type: cell-based
T2 sequence (P40337 whole entry, looked up, other chains not shown): as the sequence (P40337 whole entry partner) above

[5] = target: T2, von Hippel-Lindau disease tumor suppressor/Bromodomain-containing protein 4; assay: PROTAC activity at BRD4/VHL E3 ligase in 12 hrs BODIPY-TZ treated human MCF7 cells assessed as suppression of c-Myc expression incubated for 48 hrs by Western blot analysis; assay type: cell-based
[6] = target: T2, von Hippel-Lindau disease tumor suppressor/Bromodomain-containing protein 4; assay: In vivo PROTAC activity at BRD4/VHL E3 ligase in BALB/c nude mouse xenografted with human MCF7 cells assessed as reduction in BRD4 protein level in tumor 10 mg/kg measured after 48 hrs in presence of IR808-TZ by Western blot analysis; assay type: functional, organism-based
[7] = target: T2, von Hippel-Lindau disease tumor suppressor/Bromodomain-containing protein 4; assay: PROTAC activity at BRD4/VHL E3 ligase in 12 hrs BODIPY-TZ treated human MCF7 cells assessed as activation of caspase-3 expression incubated for 48 hrs by Western blot analysis; assay type: cell-based
[8] = target: T2, von Hippel-Lindau disease tumor suppressor/Bromodomain-containing protein 4; assay: PROTAC activity at BRD4/VHL E3 ligase in 12 hrs BODIPY-TZ treated human MCF7 cells assessed as reduction in BRD4 expression at upto 2.0 uM incubated for 48 hrs by Western blot analysis; assay type: cell-based

SMILES: CC1=CC(C)=[N+]2C1=C(c1cccc(-c3nnc(C)nn3)c1)c1c(C)cc(C)n1[B-]2(F)F
- Activity [1]: Active
- Activity [2]: Active
- Activity [3]: Active
- Activity [4]: inactive
- Activity [5]: Active
- Activity [6]: Active
- Activity [7]: Active
- Activity [8]: Active
